These results are taken from ChEMBL document CHEMBL5518224, “Rational Design of PARP1/c-Met Dual Inhibitors for Overcoming PARP1 Inhibitor Resistance Induced by c-Met Overexpression” (J Med Chem, 2024).

pKi: −log10 of the molar value.

The target of data set [1] is Hepatocyte growth factor receptor (Homo sapiens, UniProt P08581). The data set can be described thus: Inhibition of c-Met (unknown origin).
A short description of data set [2]: Toxicity in female Balb/c nude mouse xenografted with human Olaparib-resistant HCT116 cells assessed as adverse effects at 25 to 100 mg/kg, ip qd administered for 21 days. Particulars: in vivo, 504 h, dose 25-100 mg/kg, time 21 day. The data set is classed as organism-based, HCT-116.
The nature of data set [3]: AUC (0 to infinity) in male SPF-ICR mouse at 10 mg/kg, ip measured upto 24 hrs by LC-MS/MS analysis. The data set is classed as ADME, organism-based. Particulars: in vivo.
Data set [4] deals with MDA-MB-231. Kind of data set: Antitumor activity against human MDA-MB-231 cells xenografted in female Balb/c nude mouse assessed as tumor growth inhibition at 50 mg/kg/day, ip qd administered for 28 days relative to control. The data set is classed as functional. Particulars: Mus musculus, MDA-MB-231, 672 h, time 28 day, read-out: TGI.
Data set [5] can be described thus: Clearance in male SPF-ICR mouse at 10 mg/kg, ip measured upto 24 hrs by LC-MS/MS analysis. It is filed as ADME, organism-based. Particulars: in vivo.
For data set [6], the system named is Olaparib-resistant HCT116. Kind of data set: Antitumor activity against human Olaparib-resistant HCT116 cells xenografted in female Balb/c nude mouse assessed as tumor growth inhibition at 50 mg/kg/day, ip qd administered for 21 days relative to control. It is filed as functional. Particulars: Mus musculus, Olaparib-resistant HCT116, 504 h, time 21 day, read-out: TGI.

The test system of data set [7] is MDA-MB-231. The data set can be described thus: Antitumor activity against human MDA-MB-231 cells xenografted in female Balb/c nude mouse assessed as tumor growth inhibition at 25 mg/kg/day, ip qd administered for 28 days relative to control. The data set is classed as functional. Particulars: MDA-MB-231, 672 h, time 28 day, read-out: TGI.
The nature of data set [8]: Tmax in male SPF-ICR mouse at 10 mg/kg, ip measured upto 24 hrs by LC-MS/MS analysis. Particulars: in vivo. The data set is classed as ADME, organism-based.
Data set [9] can be described thus: Toxicity in female Balb/c nude mouse xenografted with human MDA-MB-231 cells assessed as body weight loss at 12.5 to 50 mg/kg, ip qd administered for 28 days. It is filed as organism-based. Particulars: in vivo, 672 h, dose 12.5-50 mg/kg, time 28 day.
A short description of data set [10]: Cmax in male SPF-ICR mouse at 10 mg/kg, ip measured upto 24 hrs by LC-MS/MS analysis. It is filed as ADME, organism-based. Particulars: in vivo.
Data set [11] in a line: Toxicity in female Balb/c nude mouse xenografted with human Olaparib-resistant HCT116 cells assessed as body weight loss at 25 to 100 mg/kg, ip qd administered for 21 days. Particulars: in vivo, 504 h, dose 25-100 mg/kg, time 21 day. It is filed as organism-based, HCT-116.
Data set [12] is described as follows: Half life in male SPF-ICR mouse at 10 mg/kg, ip measured upto 24 hrs by LC-MS/MS analysis. The data set is classed as ADME, organism-based. Particulars: in vivo.
The nature of data set [13]: MRT (0 to t) in male SPF-ICR mouse at 10 mg/kg, ip measured upto 24 hrs by LC-MS/MS analysis. The data set is classed as ADME, organism-based. Particulars: in vivo.
Data set [14] can be described thus: Toxicity in female Balb/c nude mouse xenografted with human MDA-MB-231 cells assessed as adverse effects at 12.5 to 50 mg/kg, ip qd administered for 28 days. The data set is classed as organism-based. Particulars: in vivo, 672 h, dose 12.5-50 mg/kg, time 28 day.
The test system of data set [15] is Olaparib-resistant HCT116. Kind of data set: Antitumor activity against human Olaparib-resistant HCT116 cells xenografted in female Balb/c nude mouse assessed as tumor growth inhibition at 100 mg/kg/day, ip qd administered for 21 days relative to control. The data set is classed as functional. Particulars: Olaparib-resistant HCT116, 504 h, time 21 day, read-out: TGI.

For data set [16], the system named is MDA-MB-231. The data set can be described thus: Antitumor activity against human MDA-MB-231 cells xenografted in female Balb/c nude mouse assessed as tumor growth inhibition at 12.5 mg/kg/day, ip qd administered for 28 days relative to control. It is filed as functional. Particulars: MDA-MB-231, 672 h, time 28 day, read-out: TGI.
The subject of data set [17] is Olaparib-resistant HCT116. Kind of data set: Antitumor activity against human Olaparib-resistant HCT116 cells xenografted in female Balb/c nude mouse assessed as tumor growth inhibition at 25 mg/kg/day, ip qd administered for 21 days relative to control. The data set is classed as functional. Particulars: Olaparib-resistant HCT116, 504 h, time 21 day, read-out: TGI.

The nature of data set [18]: AUC (0 to t) in male SPF-ICR mouse at 10 mg/kg, ip measured upto 24 hrs by LC-MS/MS analysis. It is filed as ADME, organism-based. Particulars: in vivo.
Data set [19] can be described thus: MRT (0 to infinity) in male SPF-ICR mouse at 10 mg/kg, ip measured upto 24 hrs by LC-MS/MS analysis. Particulars: in vivo. The data set is classed as ADME, organism-based.
Data set [20] has as its system Olaparib-resistant HCT116. The data set can be described thus: Antitumor activity against human Olaparib-resistant HCT116 cells xenografted in female Balb/c nude mouse assessed as tumor growth inhibition at 5 mg/kg/day, iv qd administered for 21 days relative to control. It is filed as functional. Particulars: Olaparib-resistant HCT116, 504 h, time 21 day, read-out: TGI.

Chain of Hepatocyte growth factor receptor (P08581 whole entry): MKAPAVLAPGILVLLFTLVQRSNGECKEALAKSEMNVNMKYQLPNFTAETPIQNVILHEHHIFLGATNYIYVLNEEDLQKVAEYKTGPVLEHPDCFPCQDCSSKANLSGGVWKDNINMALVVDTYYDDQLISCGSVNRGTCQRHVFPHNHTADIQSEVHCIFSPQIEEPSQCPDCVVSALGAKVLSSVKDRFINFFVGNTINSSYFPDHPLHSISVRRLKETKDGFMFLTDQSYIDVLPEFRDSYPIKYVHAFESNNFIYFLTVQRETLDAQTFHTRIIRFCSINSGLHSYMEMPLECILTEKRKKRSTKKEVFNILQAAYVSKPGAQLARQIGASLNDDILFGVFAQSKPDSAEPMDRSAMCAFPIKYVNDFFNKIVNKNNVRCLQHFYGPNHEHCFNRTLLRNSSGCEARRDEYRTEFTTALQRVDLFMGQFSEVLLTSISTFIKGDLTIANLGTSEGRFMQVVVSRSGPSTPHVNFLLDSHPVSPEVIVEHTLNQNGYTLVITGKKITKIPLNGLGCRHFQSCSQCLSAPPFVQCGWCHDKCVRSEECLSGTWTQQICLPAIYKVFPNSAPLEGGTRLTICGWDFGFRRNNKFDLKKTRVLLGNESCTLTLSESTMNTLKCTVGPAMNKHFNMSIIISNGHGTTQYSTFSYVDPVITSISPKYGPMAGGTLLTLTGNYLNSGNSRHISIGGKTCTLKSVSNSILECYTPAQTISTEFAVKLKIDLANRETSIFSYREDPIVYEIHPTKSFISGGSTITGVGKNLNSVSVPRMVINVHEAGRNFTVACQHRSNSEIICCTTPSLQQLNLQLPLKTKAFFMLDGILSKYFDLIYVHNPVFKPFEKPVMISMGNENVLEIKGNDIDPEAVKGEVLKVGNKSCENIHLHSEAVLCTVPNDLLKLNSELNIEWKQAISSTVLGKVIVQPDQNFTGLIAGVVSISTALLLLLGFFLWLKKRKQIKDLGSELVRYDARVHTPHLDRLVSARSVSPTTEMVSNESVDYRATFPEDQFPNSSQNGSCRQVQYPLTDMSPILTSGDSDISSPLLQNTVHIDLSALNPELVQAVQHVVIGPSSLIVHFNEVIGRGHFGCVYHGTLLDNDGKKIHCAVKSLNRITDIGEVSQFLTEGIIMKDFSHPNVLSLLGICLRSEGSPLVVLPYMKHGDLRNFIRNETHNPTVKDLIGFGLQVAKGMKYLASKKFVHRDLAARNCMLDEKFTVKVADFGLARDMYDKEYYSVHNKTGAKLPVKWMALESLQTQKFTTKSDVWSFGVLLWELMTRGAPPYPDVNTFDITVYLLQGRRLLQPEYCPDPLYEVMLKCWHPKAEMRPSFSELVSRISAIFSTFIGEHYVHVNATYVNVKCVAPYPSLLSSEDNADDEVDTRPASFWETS

Consider `O=C1NC(=O)[C@@H](c2cn3c4c(cccc24)CCC3)[C@@H]1c1c[nH]c2ccccc12` [TIVANTINIB], for which the pKi in data set [1] was 6.47.
Take `Cl.O=C(c1cc(Cc2n[nH]c(=O)c3ccccc23)ccc1F)N1CCN(c2ccc3c(OCCn4nc(-c5cccnc5)ccc4=O)ccnc3c2)CC1`: the Activity entry in [2], in data set [9], in data set [11] and in [14] was “Non-Toxic” throughout. The same molecule yielded an AUC(0-inf) in data set [3] of 96.7 ng·h/mL. For the same molecule, the inhibition in vivo at 50 mg/kg/day in data set [4] was 77%; in data set [6], 64%. The same molecule had a CL/F in data set [5] of 2020 mL/min/kg. Also, the inhibition in vivo at 25 mg/kg/day in data set [7] came out at 60%; in [17], 62%. Moreover, in [8], the Tmax was 0.25 h. In addition, the concentration in [10] peaked (Cmax) at 152 ng/mL. This molecule showed a half-life in data set [12] of 1.42 h. The same molecule returned an MRT last at 24 h in data set [13] of 1.67 h. Moreover, the inhibition in vivo at 100 mg/kg/day in [15] is 70%. Besides, the inhibition in vivo at 12.5 mg/kg/day in data set [16] is 49%. Moreover, in data set [18], the AUC(0-t) at 24 h is 95.4 ng·h/mL. Besides, the MRT inf in data set [19] came to 1.77 h. The inhibition in vivo at 5 mg/kg/day in [20] was determined as 59%.
